Results reported in US20260199323A1, “LIGAND COMPOUNDS FOR E3 UBIQUITIN LIGASE, PROTEIN DEGRADERS DEVELOPED ON BASIS OF LIGAND COMPOUNDS, AND USES THEREOF” (GLUETACS THERAPEUTICS (SHANGHAI) CO., LTD., priority 2021, published 2026).
Read-outs that look alike come from different tables or passages of the source.

Legend:
CCRF-CEM = assay: CCK-8 tumor cell proliferation, CCRF-CEM; format: cell-based, Human; conditions: Homo sapiens, CCRF-CEM, read-out: IC50 inhibiting proliferation of tumor cells, CCRF-CEM
Summary of the method: (§1)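 Proliferation was measured by CCK-8. Plated cells received compound 24 h later at ten 5-fold dilutions beginning at 10 μM.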

Hep3B2.7-1 = assay: CCK-8 tumor cell proliferation, Hep3B2.7-1; format: cell-based, Human; conditions: Homo sapiens
Method: (§2) The tumor cells used herein were cultured in a cell culture medium listed in table 4 at 37° C. in an incubator with 5% CO2. Prior to experimentation, all cells used were correctly identified by STR profiling, and tested negative for mycoplasma through routine screenings.
(§3) IC50 values of the compounds of the present disclosure (including the compounds in Tables 1 and 3, and compounds of examples) were measured using the Meilun Cell Counting Kit-8 kit from Dalian Meilun Biotech Co., Ltd. Assay details are as follows: tumor cells were seeded in a 96-well plate at a density listed in Table 5. After 24 h, 100 μL of the inoculated cells were treated with 0.5 μL of the compounds of the present disclosure (including the compounds in Tables 1 and 3, and compounds of examples) at 10 different successively decreasing concentrations (starting at the highest concentration of 10 μM; 5-fold serial dilutions). After the cells were treated with the compounds of the present disclosure for a period of time, the cell viability detection reagent was added to the culture medium for cell viability assessment according to the instructions provided with the CCK-8 kit. […] The growth inhibition of the compounds of the present disclosure on cells was plotted by Prism Graphpad software, and the IC50 values of the compounds of the present disclosure were calculated therefrom.

MM.1S = assay: CCK-8 tumor cell proliferation, MM.1S; format: cell-based; conditions: Homo sapiens, MM1.S; Table 18, FAK inhibitor based; MM.1S; read-out: IC50 inhibiting proliferation of tumor cells, MM.1S
Summary of the method: as §1

SW620 = assay: CCK-8 tumor cell proliferation, SW620; format: cell-based, Human; conditions: Homo sapiens, SW-620, SW620, read-out: IC50 inhibiting proliferation of tumor cells, SW620
Summary of the method: as §1

CAL-62 = assay: CCK-8 tumor cell proliferation, CAL-62; format: cell-based, Human; conditions: Homo sapiens, CAL-62, read-out: IC50 inhibiting proliferation of tumor cells, CAL-62
Summary of the method: as §1

LNcap = assay: CCK-8 tumor cell proliferation, LNcap; format: cell-based, Human; conditions: Homo sapiens; Table 19, IRAK4 inhibitor based; Lncap; read-out: IC50 inhibiting proliferation of tumor cells, Lncap
Method: as §2, §3

Jurkat = assay: CCK-8 tumor cell proliferation, Jurkat; format: cell-based, Human; conditions: Homo sapiens, Table 19, IRAK4 inhibitor based, read-out: IC50 inhibiting proliferation of tumor cells, Jurkat
Summary of the method: as §1

Kasumi-1 = assay: CCK-8 tumor cell proliferation, Kasumi-1; format: cell-based, Human; conditions: Homo sapiens; Table 19, IRAK4 inhibitor based; Kasumi-1; read-out: IC50 inhibiting proliferation of tumor cells, Kasumi-1
Method: as §2, §3

[1] = Table 19, IRAK4 inhibitor based
[2] = Table 19, IRAK4 inhibitor based, Hep3B2.7-1, read-out: IC50 inhibiting proliferation of tumor cells, Hep3B2.7-1

Structure (SMILES)	IC50 (CCRF-CEM; [1])	IC50 (SW620; [1])	IC50 (LNcap)	IC50 (Jurkat)	IC50 (CAL-62; [1])	IC50 (Hep3B2.7-1; [2])	IC50 (Kasumi-1)	also measured
CNC(=O)c1ccccc1Nc1cc(Nc2cc(C)c(C3CCN(Cc4ccc5c(c4)CN(C4CCC(=O)NC4=O)C5=O)CC3)cc2OC(C)C)ncc1C(F)(F)F (centres unmarked) [GT-04078, 2-((2-((4-(1-((2-(2,6-dioxopiperidin-3-yl)-1-oxoisoindolin-5-yl)methyl)piperidin-4-yl)-2-isopropoxy-5-methylphenyl)amino)-5-(trifluoromethyl)pyridin-4-yl)amino)-N-methylbenzamide]	–	–	–	–	–	–	–	IC50 (CCRF-CEM; Table 18, FAK inhibitor based): < 50 nM; IC50 (Hep3B2.7-1; Table 18, FAK inhibitor based, HEP3B2.7-1, read-out: IC50 inhibiting proliferation of tumor cells, HEP3B2.7-1): < 50 nM; IC50 (MM.1S): < 50 nM; IC50 (SW620; Table 18, FAK inhibitor based): 100 to 500 nM; IC50 (CAL-62; Table 18, FAK inhibitor based): < 50 nM
O=C1CCC(N2Cc3c(CN4CCC(n5cc(NC(=O)c6coc(-c7ccnc(NCC8CC8)c7)n6)c(C(F)F)n5)CC4)cccc3C2=O)C(=O)N1 (centres unmarked) [GT-04173, 2-(2-((cyclopropylmethyl)amino)pyridin-4-yl)-N-(3-(difluoromethyl)-1-(1-((2-(2,6-dioxopiperidin-3-yl)-1-oxoisoindolin-4-yl)methyl)piperidin-4-yl)-1H-pyrazol-4-yl)oxazole-4-carboxamide]	1000 to 5000 nM	1000 to 5000 nM	100 to 500 nM	500 to 1000 nM	1000 to 5000 nM	–	–	–
O=C1CCC(N2C(=O)c3ccc(CN4CCC(n5cc(NC(=O)c6coc(-c7ccnc(NCC8CC8)c7)n6)c(C(F)F)n5)CC4)cc3C2=O)C(=O)N1 (centres unmarked) [GT-04174, 2-(2-((cyclopropylmethyl)amino)pyridin-4-yl)-N-(3-(difluoromethyl)-1-(1-((2-(2,6-dioxopiperidin-3-yl)-1,3-dioxoisoindolin-5-yl)methyl)piperidin-4-yl)-1H-pyrazol-4-yl)oxazole-4-carboxamide]	< 50 nM	100 to 500 nM	500 to 1000 nM	50 to 100 nM	< 50 nM	–	–	–
O=C1CCC(N2Cc3c(ccc(CN4CCN(c5ccc(-n6cc(NC(=O)c7coc(-c8ccnc(NCC(F)(F)F)c8)n7)c(C(F)F)n6)cc5)CC4)c3F)C2=O)C(=O)N1 (centres unmarked) [GT-04268, N-(3-(difluoromethyl)-1-(4-(4-((2-(2,6-dioxopiperidin-3-yl)-4-fluoro-1-oxoisoindolin-5-yl)methyl)piperazin-1-yl)phenyl)-1H-pyrazol-4-yl)-2-(2-((2,2,2-trifluoroethyl)amino)pyridin-4-yl)oxazole-4-carboxamide]	–	–	–	500 to 1000 nM	–	500 to 1000 nM	100 to 500 nM	–

Now from value to compound, other results behind:

IC50 (CCRF-CEM; [1])	IC50 (SW620; [1])	IC50 (LNcap)	IC50 (Jurkat)	IC50 (CAL-62; [1])	IC50 (Hep3B2.7-1; [2])	IC50 (Kasumi-1)	Structure (SMILES)	also measured
< 50 nM	100 to 500 nM	100 to 500 nM	< 50 nM	< 50 nM	–	–	O=C1CCC(N2C(=O)c3ccc(CN4CCC(n5cc(NC(=O)c6coc(-c7ccnc(NCC(F)(F)F)c7)n6)c(C(F)F)n5)CC4)cc3C2=O)C(=O)N1 (centres unmarked) [GT-04088, N-(3-(difluoromethyl)-1-(1-((2-(2,6-dioxopiperidin-3-yl)-1,3-dioxoisoindolin-5-yl)methyl)piperidin-4-yl)-1H-pyrazol-4-yl)-2-(2-((2,2,2-trifluoroethyl)amino)pyridin-4-yl)oxazole-4-carboxamide]	–
–	–	–	500 to 1000 nM	–	100 to 500 nM	100 to 500 nM	O=C1CCC(N2Cc3cc(CN4CCN(c5ccc(-n6cc(NC(=O)c7coc(-c8ccnc(NCC(F)(F)F)c8)n7)c(C(F)F)n6)cc5)CC4)ccc3C2=O)C(=O)N1 (centres unmarked) [GT-04267, N-(3-(difluoromethyl)-1-(4-(4-((2-(2,6-dioxopiperidin-3-yl)-1-oxoisoindolin-5-yl)methyl)piperazin-1-yl)phenyl)-1H-pyrazol-4-yl)-2-(2-((2,2,2-trifluoroethyl)amino)pyridin-4-yl)oxazole-4-carboxamide]	–
–	–	–	100 to 500 nM	–	500 to 1000 nM	100 to 500 nM	O=C1CCC(N2Cc3cc(CN4CCN(c5ccc(-n6cc(NC(=O)c7coc(-c8ccnc(NCC(F)(F)F)c8)n7)c(C(F)F)n6)cc5)CC4)cc(F)c3C2=O)C(=O)N1 (centres unmarked) [GT-04270, N-(3-(difluoromethyl)-1-(4-(4-((2-(2,6-dioxopiperidin-3-yl)-7-fluoro-1-oxoisoindolin-5-yl)methyl)piperazin-1-yl)phenyl)-1H-pyrazol-4-yl)-2-(2-((2,2,2-trifluoroethyl)amino)pyridin-4-yl)oxazole-4-carboxamide]	–
